In ChEMBL document CHEMBL1201862, “PubChem BioAssay data set” (2004):
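Growth conditions: 96-well plates. Treatment: test compound, 48 hours, 5 concentrations. Analysis: linear interpolation between bracketing concentrations; unreached endpoints set to highest concentration. The concentration for 50% growth inhibition is given as GI50.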 Calls of active or inactive are those of the source. Rule as the data show it: active = GI50 up to about 1.1 µM and inactive = higher.

Tests used:
Assay in all cases: NCI tumour cell line growth inhibition, 48 h
OVCAR-5 = system: OVCAR-5
HOP-92 = system: HOP-92
DU-145 = system: DU-145
A498 = system: A498
UACC-62 = system: UACC-62
IGROV-1 = system: IGROV-1
OVCAR-8 = system: OVCAR-8
RPMI-8226 = system: RPMI-8226
TK-10 = system: TK-10
Hs-578T = system: Hs-578T
COLO 205 = system: COLO 205
UO-31 = system: UO-31
HCT-116 = system: HCT-116
KM12 = system: KM12
SR = system: SR
SN12C = system: SN12C
T47D = system: T47D
OVCAR-4 = system: OVCAR-4
NCI-H23 = system: NCI-H23
HT-29 = system: HT-29
PC-3 = system: PC-3
CAKI-1 = system: CAKI-1
SK-MEL-5 = system: SK-MEL-5
MCF7 = system: MCF7
SNB-19 = system: SNB-19
SNB-75 = system: SNB-75
MOLT-4 = system: MOLT-4
RXF 393 = system: RXF 393
U-251 = system: U-251
SK-MEL-28 = system: SK-MEL-28
M14 = system: M14
OVCAR-3 = system: OVCAR-3
SF-295 = system: SF-295
SW-620 = system: SW-620
MDA-N = system: MDA-N
LOX IMVI = system: LOX IMVI
HCT-15 = system: HCT-15
MDA-MB-435 = system: MDA-MB-435
SK-OV-3 = system: SK-OV-3
UACC-257 = system: UACC-257
Malme-3M = system: Malme-3M
HOP-62 = system: HOP-62
BT-549 = system: BT-549
CCRF-CEM = system: CCRF-CEM
NCI-H226 = system: NCI-H226
NCI/ADR-RES = system: NCI/ADR-RES
SK-MEL-2 = system: SK-MEL-2
NCI-H460 = system: NCI-H460
EKVX = system: EKVX
MDA-MB-231 = system: MDA-MB-231
NCI-H522 = system: NCI-H522
A549 = system: A549
SF-268 = system: SF-268
786-0 = system: 786-0
K562 = system: K562
ACHN = system: ACHN
SF-539 = system: SF-539
HCC 2998 = system: HCC 2998
HL-60 = system: HL-60

Measured: GI50

Nc1nc(Cl)nc2c1ncn2C1CCC(CO)O1 (stereo not given)
> 100 µM: HCT-15
inactive: OVCAR-5 > 100 µM | HOP-92 > 100 µM | DU-145 > 100 µM | A498 > 100 µM | UACC-62 > 100 µM | IGROV-1 > 100 µM | OVCAR-8 41.6 µM | RPMI-8226 > 100 µM | TK-10 > 100 µM | Hs-578T > 100 µM | COLO 205 > 100 µM | UO-31 > 100 µM | HCT-116 > 100 µM | KM12 > 100 µM | SR > 100 µM | SN12C 95.7 µM | T47D > 100 µM | OVCAR-4 > 100 µM | NCI-H23 87.9 µM | HT-29 > 100 µM | PC-3 > 100 µM | CAKI-1 > 100 µM | SK-MEL-5 > 100 µM | MCF7 > 100 µM | SNB-19 > 100 µM | SNB-75 > 100 µM | MOLT-4 35.2 µM | RXF 393 > 100 µM | U-251 > 100 µM | SK-MEL-28 > 100 µM | M14 > 100 µM | OVCAR-3 > 100 µM | SF-295 > 100 µM | SW-620 > 100 µM | MDA-N > 100 µM | LOX IMVI > 100 µM | MDA-MB-435 > 100 µM | SK-OV-3 > 100 µM | UACC-257 > 100 µM | Malme-3M > 100 µM | HOP-62 > 100 µM | BT-549 > 100 µM | CCRF-CEM 3.46 µM | NCI-H226 > 100 µM | NCI/ADR-RES 90.6 µM | SK-MEL-2 > 100 µM | NCI-H460 > 100 µM

c1cncc(CNCCN2CCNCC2)c1
inactive: OVCAR-5 > 100 µM | HOP-92 > 100 µM | A498 > 100 µM | UACC-62 > 100 µM | IGROV-1 > 100 µM | OVCAR-8 > 100 µM | RPMI-8226 > 100 µM | TK-10 > 100 µM | Hs-578T > 100 µM | COLO 205 > 100 µM | UO-31 > 100 µM | EKVX > 100 µM | HCT-116 > 100 µM | KM12 > 100 µM | SR > 100 µM | SN12C > 100 µM | T47D > 100 µM | OVCAR-4 > 100 µM | NCI-H23 > 100 µM | HT-29 > 100 µM | PC-3 > 100 µM | CAKI-1 > 100 µM | SK-MEL-5 > 100 µM | MCF7 > 100 µM | SNB-19 > 100 µM | MDA-MB-231 > 100 µM | NCI-H522 > 100 µM | SNB-75 > 100 µM | MOLT-4 > 100 µM | RXF 393 > 100 µM | U-251 > 100 µM | SK-MEL-28 > 100 µM | M14 > 100 µM | OVCAR-3 > 100 µM | SF-295 > 100 µM | SW-620 > 100 µM | MDA-N > 100 µM | LOX IMVI > 100 µM | A549 > 100 µM | MDA-MB-435 > 100 µM | SK-OV-3 > 100 µM | UACC-257 > 100 µM | SF-268 > 100 µM | 786-0 > 100 µM | K562 > 100 µM | ACHN > 100 µM | Malme-3M > 100 µM | HOP-62 > 100 µM | BT-549 > 100 µM | NCI-H226 > 100 µM | SF-539 > 100 µM | NCI/ADR-RES > 100 µM | SK-MEL-2 > 100 µM | NCI-H460 > 100 µM
> 100 µM: HCT-15

Fc1cccc(F)c1C1SCc2nc3cc4ccccc4cc3n21 (stereo not given)
16 µM: HCT-15
inactive: OVCAR-5 64 µM | HOP-92 16.3 µM | DU-145 80.4 µM | A498 21.2 µM | UACC-62 23.4 µM | IGROV-1 21.7 µM | OVCAR-8 58.6 µM | RPMI-8226 6.92 µM | TK-10 96.6 µM | COLO 205 31.2 µM | EKVX 54.6 µM | HCT-116 47 µM | KM12 34 µM | SR 17.5 µM | SN12C 34.1 µM | T47D 23 µM | OVCAR-4 3.16 µM | NCI-H23 52.7 µM | HT-29 20.2 µM | PC-3 23 µM | CAKI-1 88.1 µM | SK-MEL-5 21.8 µM | MCF7 47.2 µM | MDA-MB-231 27.5 µM | HCC 2998 23.9 µM | SNB-75 20.7 µM | MOLT-4 15.3 µM | RXF 393 28.4 µM | U-251 30.7 µM | SK-MEL-28 49.7 µM | M14 29.7 µM | OVCAR-3 15.7 µM | SF-295 29.7 µM | SW-620 49 µM | MDA-N 39 µM | LOX IMVI 32.9 µM | A549 33.3 µM | MDA-MB-435 49.9 µM | SK-OV-3 91 µM | UACC-257 31.6 µM | SF-268 52.2 µM | 786-0 31.2 µM | K562 12.1 µM | Malme-3M 39.2 µM | HOP-62 95.9 µM | BT-549 8.71 µM | CCRF-CEM 22.4 µM | NCI-H226 23.3 µM | SF-539 17.2 µM | NCI/ADR-RES > 100 µM | SK-MEL-2 > 100 µM

Cc1c2c(n3c(nc4ccccc43)c1C#N)N(c1ccc(Cl)cc1)CC2
inactive: HL-60 > 100 µM | OVCAR-5 > 100 µM | HOP-92 > 100 µM | DU-145 > 100 µM | A498 > 100 µM | UACC-62 > 100 µM | IGROV-1 > 100 µM | OVCAR-8 > 100 µM | TK-10 > 100 µM | Hs-578T > 100 µM | COLO 205 > 100 µM | UO-31 > 100 µM | EKVX > 100 µM | HCT-116 > 100 µM | SN12C > 100 µM | OVCAR-4 > 100 µM | NCI-H23 > 100 µM | HT-29 > 100 µM | PC-3 > 100 µM | CAKI-1 > 100 µM | SK-MEL-5 > 100 µM | MCF7 > 100 µM | SNB-19 > 100 µM | MDA-MB-231 > 100 µM | HCC 2998 > 100 µM | NCI-H522 > 100 µM | SNB-75 > 100 µM | RXF 393 > 100 µM | U-251 > 100 µM | SK-MEL-28 > 100 µM | M14 > 100 µM | OVCAR-3 > 100 µM | SF-295 > 100 µM | SW-620 > 100 µM | MDA-N > 100 µM | LOX IMVI > 100 µM | A549 > 100 µM | MDA-MB-435 > 100 µM | SK-OV-3 96.4 µM | UACC-257 > 100 µM | SF-268 > 100 µM | 786-0 > 100 µM | K562 > 100 µM | ACHN > 100 µM | Malme-3M > 100 µM | HOP-62 > 100 µM | BT-549 > 100 µM | CCRF-CEM > 100 µM | NCI-H226 > 100 µM | SF-539 > 100 µM | NCI/ADR-RES > 100 µM | SK-MEL-2 > 100 µM | NCI-H460 > 100 µM
> 100 µM: HCT-15

Cc1c(S(=O)(=O)c2ccccc2)c(N)n(Cc2ccccc2)c1C
> 100 µM: HCT-15
inactive: HL-60 > 100 µM | OVCAR-5 > 100 µM | HOP-92 > 100 µM | DU-145 > 100 µM | A498 > 100 µM | UACC-62 > 100 µM | IGROV-1 > 100 µM | OVCAR-8 > 100 µM | RPMI-8226 > 100 µM | TK-10 > 100 µM | Hs-578T 53.1 µM | COLO 205 > 100 µM | UO-31 > 100 µM | EKVX > 100 µM | HCT-116 > 100 µM | KM12 > 100 µM | SR > 100 µM | SN12C > 100 µM | OVCAR-4 85.7 µM | NCI-H23 > 100 µM | HT-29 > 100 µM | PC-3 38.2 µM | CAKI-1 > 100 µM | SK-MEL-5 > 100 µM | MCF7 > 100 µM | SNB-19 > 100 µM | MDA-MB-231 > 100 µM | HCC 2998 > 100 µM | NCI-H522 > 100 µM | SNB-75 > 100 µM | MOLT-4 > 100 µM | RXF 393 76.6 µM | U-251 > 100 µM | SK-MEL-28 > 100 µM | M14 7.08 µM | OVCAR-3 96.8 µM | SF-295 > 100 µM | SW-620 > 100 µM | MDA-N > 100 µM | A549 > 100 µM | MDA-MB-435 > 100 µM | SK-OV-3 > 100 µM | UACC-257 > 100 µM | SF-268 80.5 µM | 786-0 > 100 µM | K562 > 100 µM | ACHN > 100 µM | Malme-3M > 100 µM | BT-549 > 100 µM | CCRF-CEM > 100 µM | NCI-H226 > 100 µM | SF-539 53.1 µM | NCI/ADR-RES > 100 µM | SK-MEL-2 > 100 µM | NCI-H460 > 100 µM
